From patent US4755513A, “Antimicrobial 1-substituted phenyl-4-oxoquinoline-3-carboxylic acid compounds” (Otsuka Pharmaceutical Company, Limited, priority 1985, dated 1988)
Where two headings read alike, the source gives them in different places.

Experiments:
[1] = test system: Escherichia coli NIHJ JC-2; assay: MIC by serial dilution method on agar plate; format: cell-based
Text: (§1) Chemotherapy, 22, 1126-1128 (1974)]. The microorganisms were used in a concentration of 1×10^8 cells/ml (O.D. 660 mμ, 0.07-0.16) and 1×10^6 cells/ml (100 folds dilution).

[2] = test system: Serratia marcescens IFO 12648; assay: MIC by serial dilution method on agar plate; format: cell-based
Text: as §1

Escherichia coli No. 29 = assay: MIC by serial dilution method on agar plate; format: cell-based
Text: as §1

[3] = test system: Proteus inconstans IFO 12930; assay: MIC by serial dilution method on agar plate; format: cell-based
Text: as §1

[4] = test system: Acinetobacter calcoaceticus AC-54; assay: MIC by serial dilution method on agar plate; format: cell-based
Text: as §1

[5] = test system: Pseudomonas aeruginosa ATCC 10145; assay: MIC by serial dilution method on agar plate; format: cell-based
Text: as §1

[6] = test system: Klebsiella pneumoniae NCTC 9632; assay: MIC by serial dilution method on agar plate; format: cell-based
Text: as §1

[7] = test system: Bacillus subtilis ATCC 6633; assay: MIC by serial dilution method on agar plate; format: cell-based
Text: as §1

[8] = test system: Pseudomonas aeruginosa E-2; assay: MIC by serial dilution method on agar plate; format: cell-based
Text: as §1

[9] = test system: Proteus morganii IID Kono; assay: MIC by serial dilution method on agar plate; format: cell-based
Text: as §1

[10] = Absorption by oral administration in monkey (plasma concentration, thin layer cup bio-assay); format: in vivo; conditions: 100 mg/kg;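 also: plasma concentration in γ/ml (µg/mL) rather than the printed ng/mL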
Method: The test compounds were dissolved in 0.1N hydrochloric acid or suspended in 0.5% sodium carboxymethyl cellulose solution. The solution or suspension was administered into stomach of monkey (two monkeys) with cathetel. After the administration of test compounds, the blood was collected from the lower limbs vein at a fixed interval with a syringe treated with heparin. The collected blood was centrifuged at 3,000 r.p.m. for 10 minutes to separate the plasma. The concentration of the test compound was measured by a thin layer cup method (a bio-assay), wherein Bacillus subtilis ATCC 6633 was used as a bacteria for determination. Based on a standard curve, the concentration of test compound in plasma was calculated.

[11] = test system: Staphylococcus pyrogens IID S-23; assay: MIC by serial dilution method on agar plate; format: cell-based
Text: (§2) The microorganisms were used in a concentration of 1×10^8 cells/ml (O.D. 660 mμ, 0.07-0.16) and 1×10^6 cells/ml (100 folds dilution).

[12] = test system: Staphylococcus aureus FDA 209P; assay: MIC by serial dilution method on agar plate; format: cell-based
Text: as §2

[13] = test system: Streptococcus faecalis IFO 12580; assay: MIC by serial dilution method on agar plate; format: cell-based
Text: as §1

## CN1CCN(c2cc3c(cc2F)c(=O)c(C(=O)O)cn3-c2ccc(O)cc2)CC1 [C]
[1]; 1 × 10^6 cells/ml
  minimum inhibitory concentration (MIC): 0.097
[1]; 1 × 10^8 cells/ml
  minimum inhibitory concentration (MIC): 0.097
[2]; 1 × 10^6 cells/ml
  minimum inhibitory concentration (MIC): 0.195
[2]; 1 × 10^8 cells/ml
  minimum inhibitory concentration (MIC): 0.39
Escherichia coli No. 29; 1 × 10^6 cells/ml
  minimum inhibitory concentration (MIC): < 0.048
Escherichia coli No. 29; 1 × 10^8 cells/ml
  minimum inhibitory concentration (MIC): 0.097
[3]; 1 × 10^6 cells/ml
  minimum inhibitory concentration (MIC): 0.39
[3]; 1 × 10^8 cells/ml
  minimum inhibitory concentration (MIC): 0.78
[4]; 1 × 10^6 cells/ml
  minimum inhibitory concentration (MIC): 0.195
[4]; 1 × 10^8 cells/ml
  minimum inhibitory concentration (MIC): 0.39
[5]; 1 × 10^6 cells/ml
  minimum inhibitory concentration (MIC): 0.78
[5]; 1 × 10^8 cells/ml
  minimum inhibitory concentration (MIC): 1.56
[6]; 1 × 10^6 cells/ml
  minimum inhibitory concentration (MIC): < 0.048
[6]; 1 × 10^8 cells/ml
  minimum inhibitory concentration (MIC): 0.097
[7]; 1 × 10^6 cells/ml
  minimum inhibitory concentration (MIC): 0.097
[7]; 1 × 10^8 cells/ml
  minimum inhibitory concentration (MIC): 0.097
[8]; 1 × 10^6 cells/ml
  minimum inhibitory concentration (MIC): 0.39
[8]; 1 × 10^8 cells/ml
  minimum inhibitory concentration (MIC): 0.78
[9]; 1 × 10^6 cells/ml
  minimum inhibitory concentration (MIC): 0.39
[9]; 1 × 10^8 cells/ml
  minimum inhibitory concentration (MIC): 0.39
[10]; Run 1, 0.5 hour, read-out: Amount of test compd. in plasma
  concentration at 0.5 h: 360 ng/mL
[10]; Run 1, 1 hour, read-out: Amount of test compd. in plasma
  concentration at 1 h: 490 ng/mL
[10]; Run 1, 2 hour, read-out: Amount of test compd. in plasma
  concentration at 2 h: 650 ng/mL
[10]; Run 1, 4 hour, read-out: Amount of test compd. in plasma
  concentration at 4 h: 960 ng/mL
[10]; Run 1, 7 hour, read-out: Amount of test compd. in plasma
  concentration at 7 h: 950 ng/mL
[10]; Run 1, 24 hour, read-out: Amount of test compd. in plasma
  concentration at 24 h: 900 ng/mL
[10]; Run 2, 0.5 hour, read-out: Amount of test compd. in plasma
  concentration at 0.5 h: < 390 ng/mL
[10]; Run 2, 1 hour, read-out: Amount of test compd. in plasma
  concentration at 1 h: < 390 ng/mL
[10]; Run 2, 2 hour, read-out: Amount of test compd. in plasma
  concentration at 2 h: < 390 ng/mL
[10]; Run 2, 4 hour, read-out: Amount of test compd. in plasma
  concentration at 4 h: < 390 ng/mL
[10]; Run 2, 7 hour, read-out: Amount of test compd. in plasma
  concentration at 7 h: < 390 ng/mL
[10]; Run 2, 24 hour, read-out: Amount of test compd. in plasma
  concentration at 24 h: < 390 ng/mL
[10]; average of two runs, 0.5 hour, read-out: Amount of test compd. in plasma, Average
  concentration at 0.5 h: < 280 ng/mL
[10]; average of two runs, 1 hour, read-out: Amount of test compd. in plasma, Average
  concentration at 1 h: < 350 ng/mL
[10]; average of two runs, 2 hour, read-out: Amount of test compd. in plasma, Average
  concentration at 2 h: < 430 ng/mL
[10]; average of two runs, 4 hour, read-out: Amount of test compd. in plasma, Average
  concentration at 4 h: < 580 ng/mL
[10]; average of two runs, 7 hour, read-out: Amount of test compd. in plasma, Average
  concentration at 7 h: < 580 ng/mL
[10]; average of two runs, 24 hour, read-out: Amount of test compd. in plasma, Average
  concentration at 24 h: < 550 ng/mL
[11]; 1 × 10^6 cells/ml
  minimum inhibitory concentration (MIC): 0.78
[11]; 1 × 10^8 cells/ml
  minimum inhibitory concentration (MIC): 1.56
[12]; 1 × 10^6 cells/ml
  minimum inhibitory concentration (MIC): < 0.048
[12]; 1 × 10^8 cells/ml
  minimum inhibitory concentration (MIC): 0.097

## 6,8-Difluoro-1-(4-hydroxy-2-fluorophenyl)-7-(1-piperazinyl)-1,4-dihydro-4-oxoquinoline-3-carboxylic acid [Example 5]
[1]; 1 × 10^6 cells/ml
  minimum inhibitory concentration (MIC): < 0.048
[1]; 1 × 10^8 cells/ml
  minimum inhibitory concentration (MIC): 0.097
[2]; 1 × 10^6 cells/ml
  minimum inhibitory concentration (MIC): 0.781
[2]; 1 × 10^8 cells/ml
  minimum inhibitory concentration (MIC): 0.781
[13]; 1 × 10^6 cells/ml
  minimum inhibitory concentration (MIC): 0.781
[13]; 1 × 10^8 cells/ml
  minimum inhibitory concentration (MIC): 1.56
Escherichia coli No. 29; 1 × 10^6 cells/ml
  minimum inhibitory concentration (MIC): < 0.048
Escherichia coli No. 29; 1 × 10^8 cells/ml
  minimum inhibitory concentration (MIC): 0.097
[3]; 1 × 10^6 cells/ml
  minimum inhibitory concentration (MIC): 1.56
[3]; 1 × 10^8 cells/ml
  minimum inhibitory concentration (MIC): 3.12
[4]; 1 × 10^6 cells/ml
  minimum inhibitory concentration (MIC): 0.39
[4]; 1 × 10^8 cells/ml
  minimum inhibitory concentration (MIC): 0.781
[5]; 1 × 10^6 cells/ml
  minimum inhibitory concentration (MIC): 1.56
[5]; 1 × 10^8 cells/ml
  minimum inhibitory concentration (MIC): 3.12
[6]; 1 × 10^6 cells/ml
  minimum inhibitory concentration (MIC): 0.097
[6]; 1 × 10^8 cells/ml
  minimum inhibitory concentration (MIC): 0.097
[7]; 1 × 10^6 cells/ml
  minimum inhibitory concentration (MIC): 0.195
[7]; 1 × 10^8 cells/ml
  minimum inhibitory concentration (MIC): 0.39
[8]; 1 × 10^6 cells/ml
  minimum inhibitory concentration (MIC): 1.56
[8]; 1 × 10^8 cells/ml
  minimum inhibitory concentration (MIC): 1.56
[9]; 1 × 10^6 cells/ml
  minimum inhibitory concentration (MIC): 0.781
[9]; 1 × 10^8 cells/ml
  minimum inhibitory concentration (MIC): 1.56
[12]; 1 × 10^6 cells/ml
  minimum inhibitory concentration (MIC): 0.097
[12]; 1 × 10^8 cells/ml
  minimum inhibitory concentration (MIC): 0.097
